We go through 4 molecules from ChEMBL document CHEMBL2074010, “Transport function and hepatocellular localization of mrp6 in rat liver” (Mol Pharmacol, 2000).

SMILES strings stand for the structures.

This data set addresses ATP-binding cassette sub-family C member 2 (Rattus norvegicus, UniProt Q63120). Nature of the data set: TP_TRANSPORTER: uptake in membrane vesicles from Mrp2-expressing Sf9 cells. It is filed as functional, cell membranes, Membrane vesicle.

ATP-binding cassette sub-family C member 2, sequence (Q63120 whole entry): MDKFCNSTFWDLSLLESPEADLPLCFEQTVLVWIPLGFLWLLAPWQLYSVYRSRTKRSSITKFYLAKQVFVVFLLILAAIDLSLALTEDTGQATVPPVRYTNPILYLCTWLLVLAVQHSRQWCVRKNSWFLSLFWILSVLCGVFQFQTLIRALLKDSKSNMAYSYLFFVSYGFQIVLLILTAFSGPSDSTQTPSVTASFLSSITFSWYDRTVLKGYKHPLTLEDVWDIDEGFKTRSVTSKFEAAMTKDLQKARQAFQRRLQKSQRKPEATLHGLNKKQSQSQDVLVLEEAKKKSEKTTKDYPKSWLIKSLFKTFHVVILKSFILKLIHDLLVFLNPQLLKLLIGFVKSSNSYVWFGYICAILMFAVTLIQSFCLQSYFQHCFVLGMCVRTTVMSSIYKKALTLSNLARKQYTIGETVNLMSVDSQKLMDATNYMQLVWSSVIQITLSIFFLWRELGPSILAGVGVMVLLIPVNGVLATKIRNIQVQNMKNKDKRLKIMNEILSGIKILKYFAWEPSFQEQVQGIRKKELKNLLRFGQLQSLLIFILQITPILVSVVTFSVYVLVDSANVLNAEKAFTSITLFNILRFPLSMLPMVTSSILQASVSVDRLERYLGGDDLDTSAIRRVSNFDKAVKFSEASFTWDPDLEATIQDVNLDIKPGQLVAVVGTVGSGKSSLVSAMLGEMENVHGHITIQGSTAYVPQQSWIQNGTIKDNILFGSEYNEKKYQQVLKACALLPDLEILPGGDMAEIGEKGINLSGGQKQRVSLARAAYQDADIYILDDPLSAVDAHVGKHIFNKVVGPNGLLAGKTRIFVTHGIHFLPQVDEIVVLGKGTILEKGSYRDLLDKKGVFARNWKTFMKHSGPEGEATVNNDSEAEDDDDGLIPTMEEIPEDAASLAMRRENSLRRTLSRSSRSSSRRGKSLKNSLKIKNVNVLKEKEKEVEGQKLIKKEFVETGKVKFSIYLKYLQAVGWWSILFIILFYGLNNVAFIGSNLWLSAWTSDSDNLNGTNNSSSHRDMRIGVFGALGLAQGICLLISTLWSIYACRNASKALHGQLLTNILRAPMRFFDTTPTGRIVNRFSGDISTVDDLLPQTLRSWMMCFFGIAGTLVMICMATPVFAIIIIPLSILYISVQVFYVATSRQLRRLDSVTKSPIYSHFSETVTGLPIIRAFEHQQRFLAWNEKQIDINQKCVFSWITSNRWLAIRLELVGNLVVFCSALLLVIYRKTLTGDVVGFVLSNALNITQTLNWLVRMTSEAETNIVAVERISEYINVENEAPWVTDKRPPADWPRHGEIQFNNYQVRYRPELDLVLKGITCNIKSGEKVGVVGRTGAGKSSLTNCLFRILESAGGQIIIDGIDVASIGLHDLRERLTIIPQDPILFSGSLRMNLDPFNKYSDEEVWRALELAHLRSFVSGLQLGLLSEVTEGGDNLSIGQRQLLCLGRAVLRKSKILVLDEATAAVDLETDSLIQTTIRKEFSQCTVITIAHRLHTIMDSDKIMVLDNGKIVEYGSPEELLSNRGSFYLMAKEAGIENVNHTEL

As to `N[C@@H](CCC(=O)N[C@H](CSc1ccc([N+](=O)[O-])cc1[N+](=O)[O-])C(=O)NCC(=O)O)C(=O)O`, the Activity entry is “is not a substrate [-]”. On to `CC[C@H](C)[C@H](NC(=O)[C@H](CC(=O)O)NC(=O)[C@H](CC(C)C)NC(=O)[C@H](Cc1cnc[nH]1)NC(=O)[C@@H]1CSSC[C@H](N)C(=O)N[C@@H](CO)C(=O)N[C@H]2CSSC[C@H](NC(=O)[C@H](CCC(=O)O)NC(=O)[C@H](CCCCN)NC(=O)[C@H](CC(=O)O)NC(=O)[C@H](CCSC)NC(=O)[C@H](CC(C)C)NC(=O)[C@H](CO)NC(=O)[C@H](CO)NC2=O)C(=O)N[C@@H](C(C)C)C(=O)N[C@@H](Cc2ccc(O)cc2)C(=O)N[C@@H](Cc2ccccc2)C(=O)N1)C(=O)N[C@H](C(=O)N[C@@H](Cc1c[nH]c2ccccc12)C(=O)O)[C@@H](C)CC` [ENDOTHELIN], for which the Activity entry is “substrate [+]”.

For the molecule `C[C@]12CC[C@@H]3c4ccc(O)cc4CC[C@H]3[C@@H]1CC[C@@H]2O[C@@H]1O[C@H](C(=O)O)[C@@H](O)[C@H](O)[C@H]1O` [ESTRADIOL 17B GLUCURONIDE], the Activity result was “is not a substrate [-]”. As for `CCCCC/C=C\C\C=C/C=C/C=C/[C@@H](SC[C@@H](NC(=O)CC[C@H](N)C(=O)O)C(=O)NCC(=O)O)[C@@H](O)CCCC(=O)O` [LEUKOTRIEN C4], the Activity result is “is not a substrate [-]”.
